# Reference: ChEMBL document CHEMBL1201861, “Genomics of Drug Sensitity in Cancer screening data, Wellcome Trust Sanger Institute”
# What was measured:
# Assay in all cases: cells
# Conditions in all cases: Homo sapiens
# A388 = assay type: functional, cell-based;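 further: growth inhibition of human A388 cells, read out with a cell viability assay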
# Description: SANGER: Inhibition of human A388 cell growth in a cell viability assay.
# SK-PN-DW = assay type: functional, cell-based;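 further: growth inhibition measured with a viability assay on these cells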
# Description: SANGER: Inhibition of human SK-PN-DW cell growth in a cell viability assay.
# SCC-15 = assay type: functional, cell-based;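 further: growth inhibition of SCC-15 cells, read out with a cell viability assay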
# Description: SANGER: Inhibition of human SCC-15 cell growth in a cell viability assay.
# TE-9 = assay type: functional, cell-based;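 further: cell growth inhibition, measured with a cell viability readout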
# Description: SANGER: Inhibition of human TE-9 cell growth in a cell viability assay.
# EW-3 = assay type: functional, cell-based;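 further: cell viability assay read-out, IC50 reflects inhibition of growth of the EW-3 cells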
# Description: SANGER: Inhibition of human EW-3 cell growth in a cell viability assay.
# HDLM-2 = assay type: functional, cell-based;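 further: cell viability assay measuring suppression of HDLM-2 proliferation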
# Description: SANGER: Inhibition of human HDLM-2 cell growth in a cell viability assay.
# JAR = assay type: functional, cell-based;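 further: growth inhibition of human JAR cells determined with a cell viability assay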
# Description: SANGER: Inhibition of human JAR cell growth in a cell viability assay.
# NB69 = assay type: functional, cell-based;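 further: growth inhibition of NB69 cells, determined by a cell viability assay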
# Description: SANGER: Inhibition of human NB69 cell growth in a cell viability assay.
# DB = assay type: functional, cell-based
# Description: SANGER: Inhibition of human DB cell growth in a cell viability assay.
# MZ1-PC = assay type: functional, cell-based;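 further: cell viability assay measuring growth inhibition of human MZ1-PC cells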
# Description: SANGER: Inhibition of human MZ1-PC cell growth in a cell viability assay.
# SK-MEL-1 = assay type: functional, cell-based;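 further: growth inhibition of human SK-MEL-1 cells, read out by a cell viability assay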
# Description: SANGER: Inhibition of human SK-MEL-1 cell growth in a cell viability assay.
# JVM-3 = assay type: functional, cell-based;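 further: growth inhibition of human JVM-3 cells, read out with a cell viability assay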
# Description: SANGER: Inhibition of human JVM-3 cell growth in a cell viability assay.
# BB49-HNC = assay type: functional, cell-based;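 further: cell viability assay read-out, reported as inhibition of BB49-HNC cell growth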
# Description: SANGER: Inhibition of human BB49-HNC cell growth in a cell viability assay.
# LB1047-RCC = assay type: functional, cell-based;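 further: inhibition of cell growth, determined with a cell viability assay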
# Description: SANGER: Inhibition of human LB1047-RCC cell growth in a cell viability assay.
# KP-N-YS = assay type: functional, cell-based;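 further: cell viability assay measuring inhibition of cell line growth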
# Description: SANGER: Inhibition of human KP-N-YS cell growth in a cell viability assay.
# HEL = assay type: functional, cell-based;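 further: growth inhibition of HEL cells, read out with a cell viability assay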
# Description: SANGER: Inhibition of human HEL cell growth in a cell viability assay.
# NCI-H1838 = assay type: functional, cell-based;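 further: growth inhibition of NCI-H1838 cells, determined with a cell viability readout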
# Description: SANGER: Inhibition of human NCI-H1838 cell growth in a cell viability assay.
# MS-1 = assay type: functional, cell-based;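 further: growth inhibition of MS-1 cells, read out by cell viability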
# Description: SANGER: Inhibition of human MS-1 cell growth in a cell viability assay.
# LOX IMVI = assay type: functional, cell-based
# Description: SANGER: Inhibition of human LOXIMVI cell growth in a cell viability assay.
# KGN = assay type: functional, cell-based;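 further: growth inhibition of KGN cells, read out with a cell viability assay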
# Description: SANGER: Inhibition of human KGN cell growth in a cell viability assay.
# U-266 = assay type: functional, cell-based
# Description: SANGER: Inhibition of human U-266 cell growth in a cell viability assay.
# NCI-H1648 = assay type: functional, cell-based;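 further: cell viability assay measuring inhibition of NCI-H1648 cell growth, from the Sanger screening data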
# Description: SANGER: Inhibition of human NCI-H1648 cell growth in a cell viability assay.
# HCE-4 = assay type: functional, cell-based;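 further: cell viability assay measuring inhibition of growth in the human HCE-4 cell line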
# Description: SANGER: Inhibition of human HCE-4 cell growth in a cell viability assay.
# ES3 = assay type: functional, cell-based;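 further: growth inhibition of ES3 cells, read out with a cell viability assay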
# Description: SANGER: Inhibition of human ES3 cell growth in a cell viability assay.
# ES6 = assay type: functional, cell-based;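 further: growth inhibition of human ES6 cells, read out with a cell viability assay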
# Description: SANGER: Inhibition of human ES6 cell growth in a cell viability assay.
# EW-13 = assay type: functional, cell-based;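 further: growth inhibition of EW-13 cells, read out with a cell viability assay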
# Description: SANGER: Inhibition of human EW-13 cell growth in a cell viability assay.
# TE-5 = assay type: functional, cell-based;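 further: inhibition of cell growth, read out by a cell viability assay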
# Description: SANGER: Inhibition of human TE-5 cell growth in a cell viability assay.
# RKO = assay type: functional, cell-based;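 further: growth inhibition of human RKO cells, read out with a cell viability assay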
# Description: SANGER: Inhibition of human RKO cell growth in a cell viability assay.
# D283 Med = assay type: functional, cell-based
# Description: SANGER: Inhibition of human D-283MED cell growth in a cell viability assay.
# ES1 = assay type: functional, cell-based;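 further: growth inhibition of ES1 cells, read out with a cell viability assay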
# Description: SANGER: Inhibition of human ES1 cell growth in a cell viability assay.
# MOLT-16 = assay type: functional, cell-based;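 further: growth inhibition of human MOLT-16 cells, read out with a cell viability assay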
# Description: SANGER: Inhibition of human MOLT-16 cell growth in a cell viability assay.
# MOLT-4 = assay type: functional, cell-based;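 further: growth inhibition of MOLT-4 cells, determined with a cell viability readout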
# Description: SANGER: Inhibition of human MOLT-4 cell growth in a cell viability assay.
# ACN = assay type: functional, cell-based;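 further: growth inhibition of the human ACN cell line, read out via cell viability testing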
# Description: SANGER: Inhibition of human ACN cell growth in a cell viability assay.
# MFH-ino = assay type: functional, cell-based;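 further: growth inhibition of human MFH-ino cells, read out by a cell viability assay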
# Description: SANGER: Inhibition of human MFH-ino cell growth in a cell viability assay.
# 697 = assay type: functional, cell-based
# Description: SANGER: Inhibition of human 697 cell growth in a cell viability assay.
# MZ7-mel = assay type: functional, cell-based;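 further: growth inhibition of human MZ7-mel cells, measured by a cell viability assay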
# Description: SANGER: Inhibition of human MZ7-mel cell growth in a cell viability assay.
# RPMI-8226 = assay type: functional, cell-based
# Description: SANGER: Inhibition of human RPMI-8226 cell growth in a cell viability assay.
# SW 954 = assay type: functional, cell-based;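 further: growth inhibition of SW954 human cancer cells, read out as cell viability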
# Description: SANGER: Inhibition of human SW954 cell growth in a cell viability assay.
# NCI-H1581 = assay type: functional, cell-based;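 further: cell growth inhibition read out by a viability assay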
# Description: SANGER: Inhibition of human NCI-H1581 cell growth in a cell viability assay.
# KG-1 = assay type: functional, cell-based;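 further: growth inhibition of KG-1 cells, read out by a cell viability assay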
# Description: SANGER: Inhibition of human KG-1 cell growth in a cell viability assay.
# EW-16 = assay type: functional, cell-based;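 further: growth inhibition of human EW-16 cells, read out as cell viability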
# Description: SANGER: Inhibition of human EW-16 cell growth in a cell viability assay.
# A4-Fuk = assay type: functional, cell-based;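 further: growth inhibition of A4-Fuk cells, read out by a cell viability assay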
# Description: SANGER: Inhibition of human A4-Fuk cell growth in a cell viability assay.
# LB831-BLC = assay type: functional, cell-based;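 further: growth inhibition of LB831-BLC cells, read out with a cell viability assay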
# Description: SANGER: Inhibition of human LB831-BLC cell growth in a cell viability assay.
# TE-6 = assay type: functional, cell-based;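 further: growth inhibition of TE-6 cells, read out with a cell viability assay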
# Description: SANGER: Inhibition of human TE-6 cell growth in a cell viability assay.
# CTB-1 = assay type: functional, cell-based
# Description: SANGER: Inhibition of human CTB-1 cell growth in a cell viability assay.
# COR-L88 = assay type: functional, cell-based;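 further: growth inhibition of COR-L88 cells, read out with a cell viability assay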
# Description: SANGER: Inhibition of human COR-L88 cell growth in a cell viability assay.
# NCI-H1355 = assay type: functional, cell-based;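 further: growth inhibition of human NCI-H1355 cells, read out by a cell viability assay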
# Description: SANGER: Inhibition of human NCI-H1355 cell growth in a cell viability assay.
# TE-11 = assay type: functional, cell-based;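 further: growth inhibition of human TE-11 cells, read out by a cell viability assay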
# Description: SANGER: Inhibition of human TE-11 cell growth in a cell viability assay.
# LB771-HNC = assay type: functional, cell-based;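 further: growth inhibition of LB771-HNC human cells, read out with a cell viability assay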
# Description: SANGER: Inhibition of human LB771-HNC cell growth in a cell viability assay.
# MV4-11 = assay type: functional, cell-based, MV-4-11;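 further: cell viability readout measuring growth inhibition of human MV-4-11 cells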
# Description: SANGER: Inhibition of human MV-4-11 cell growth in a cell viability assay.
# COLO-684 = assay type: functional, cell-based
# Description: SANGER: Inhibition of human COLO-684 cell growth in a cell viability assay.
# GR-ST = assay type: functional, cell-based
# Description: SANGER: Inhibition of human GR-ST cell growth in a cell viability assay.
# C2BBe1 = assay type: functional, cell-based;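 further: growth inhibition of C2BBe1 cells, read out through a viability assay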
# Description: SANGER: Inhibition of human C2BBe1 cell growth in a cell viability assay.
# KM12 = assay type: functional, cell-based;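 further: KM12 cell growth inhibition, read out with a cell viability assay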
# Description: SANGER: Inhibition of human KM12 cell growth in a cell viability assay.
# TE-1 = assay type: functional, cell-based
# Description: SANGER: Inhibition of human TE-1 cell growth in a cell viability assay.
# ES8 = assay type: functional, cell-based;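 further: growth inhibition of human ES8 cells, read out with a cell viability assay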
# Description: SANGER: Inhibition of human ES8 cell growth in a cell viability assay.
# GI-1 = assay type: functional, cell-based;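 further: growth inhibition of human GI-1 cells, measured with a cell viability readout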
# Description: SANGER: Inhibition of human GI-1 cell growth in a cell viability assay.
# SBC-1 = assay type: functional, cell-based;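 further: cell viability assay measuring growth inhibition of the SBC-1 cell line, IC50 being the concentration that halves growth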
# Description: SANGER: Inhibition of human SBC-1 cell growth in a cell viability assay.
# K5 = assay type: functional, cell-based
# Description: SANGER: Inhibition of human K5 cell growth in a cell viability assay.
# GB-1 = assay type: functional, cell-based
# Description: SANGER: Inhibition of human GB-1 cell growth in a cell viability assay.
# J-RT3-T3-5 = assay type: functional, cell-based
# Description: SANGER: Inhibition of human J-RT3-T3-5 cell growth in a cell viability assay.
# NMC-G1 = assay type: functional, cell-based
# Description: SANGER: Inhibition of human NMC-G1 cell growth in a cell viability assay.
# LS-411N = assay type: functional, cell-based
# CGTH-W-1 = assay type: functional, cell-based
# Description: SANGER: Inhibition of human CGTH-W-1 cell growth in a cell viability assay.
# NCI-H209 = assay type: functional, cell-based
# Description: SANGER: Inhibition of human NCI-H209 cell growth in a cell viability assay.
# NCI-H526 = assay type: functional, cell-based
# Description: SANGER: Inhibition of human NCI-H526 cell growth in a cell viability assay.
smiles,measurement,setting,value
Cc1[nH]c(/C=C2\C(=O)Nc3ccc(S(=O)(=O)Cc4c(Cl)cccc4Cl)cc32)c(C)c1C(=O)N1CCC[C@@H]1CN1CCCC1 [PHA-665752],IC50,A388,> 2000 nM
same,IC50,SK-PN-DW,> 2000 nM
same,IC50,SCC-15,> 2000 nM
same,IC50,TE-9,> 2000 nM
same,IC50,EW-3,> 2000 nM
same,IC50,HDLM-2,> 2000 nM
same,IC50,JAR,> 2000 nM
same,IC50,NB69,> 2000 nM
same,IC50,DB,> 2000 nM
same,IC50,MZ1-PC,> 2000 nM
same,IC50,SK-MEL-1,> 2000 nM
same,IC50,JVM-3,> 2000 nM
same,IC50,BB49-HNC,> 2000 nM
same,IC50,LB1047-RCC,> 2000 nM
same,IC50,KP-N-YS,> 2000 nM
same,IC50,HEL,> 2000 nM
same,IC50,NCI-H1838,> 2000 nM
same,IC50,MS-1,> 2000 nM
same,IC50,LOX IMVI,> 2000 nM
same,IC50,KGN,> 2000 nM
same,IC50,U-266,> 2000 nM
same,IC50,NCI-H1648,> 2000 nM
same,IC50,HCE-4,> 2000 nM
same,IC50,ES3,> 2000 nM
same,IC50,ES6,> 2000 nM
same,IC50,EW-13,> 2000 nM
same,IC50,TE-5,> 2000 nM
same,IC50,RKO,> 2000 nM
same,IC50,D283 Med,> 2000 nM
same,IC50,ES1,> 2000 nM
same,IC50,MOLT-16,> 2000 nM
same,IC50,MOLT-4,> 2000 nM
same,IC50,ACN,> 2000 nM
same,IC50,MFH-ino,> 2000 nM
same,IC50,697,> 2000 nM
same,IC50,MZ7-mel,> 2000 nM
same,IC50,RPMI-8226,> 2000 nM
same,IC50,SW 954,> 2000 nM
same,IC50,NCI-H1581,> 2000 nM
same,IC50,KG-1,> 2000 nM
same,IC50,EW-16,> 2000 nM
same,IC50,A4-Fuk,> 2000 nM
same,IC50,LB831-BLC,> 2000 nM
same,IC50,TE-6,> 2000 nM
same,IC50,CTB-1,> 2000 nM
same,IC50,COR-L88,> 2000 nM
same,IC50,NCI-H1355,> 2000 nM
same,IC50,TE-11,> 2000 nM
same,IC50,LB771-HNC,> 2000 nM
same,IC50,MV4-11,1290 nM
same,IC50,COLO-684,> 2000 nM
same,IC50,GR-ST,> 2000 nM
same,IC50,C2BBe1,> 2000 nM
same,IC50,KM12,> 2000 nM
same,IC50,TE-1,> 2000 nM
same,IC50,ES8,> 2000 nM
same,IC50,GI-1,> 2000 nM
same,IC50,SBC-1,> 2000 nM
same,IC50,K5,> 2000 nM
same,IC50,GB-1,> 2000 nM
same,IC50,J-RT3-T3-5,> 2000 nM
same,IC50,NMC-G1,> 2000 nM
same,IC50,LS-411N,> 2000 nM
same,IC50,CGTH-W-1,> 2000 nM
same,IC50,NCI-H209,> 2000 nM
same,IC50,NCI-H526,> 2000 nM
O=c1[nH]c2ccccc2n1C1CCN(Cc2ccc(-c3nc4cc5[nH]cnc5cc4nc3-c3ccccc3)cc2)CC1,IC50,A388,> 2560 nM
same,IC50,SK-PN-DW,> 2560 nM
same,IC50,SCC-15,> 2560 nM
same,IC50,TE-9,> 2560 nM
same,IC50,EW-3,> 2560 nM
same,IC50,HDLM-2,> 2560 nM
same,IC50,JAR,> 2560 nM
same,IC50,NB69,> 2560 nM
same,IC50,DB,> 2560 nM
same,IC50,MZ1-PC,> 2560 nM
same,IC50,SK-MEL-1,> 2560 nM
same,IC50,JVM-3,> 2560 nM
same,IC50,BB49-HNC,> 2560 nM
same,IC50,LB1047-RCC,> 2560 nM
same,IC50,KP-N-YS,> 2560 nM
same,IC50,HEL,> 2560 nM
same,IC50,NCI-H1838,> 2560 nM
same,IC50,MS-1,> 2560 nM
same,IC50,LOX IMVI,> 2560 nM
same,IC50,KGN,> 2560 nM
same,IC50,U-266,> 2560 nM
same,IC50,NCI-H1648,> 2560 nM
same,IC50,HCE-4,> 2560 nM
same,IC50,ES3,> 2560 nM
same,IC50,ES6,> 2560 nM
same,IC50,EW-13,> 2560 nM
same,IC50,TE-5,> 2560 nM
same,IC50,RKO,> 2560 nM
same,IC50,D283 Med,> 2560 nM
same,IC50,ES1,> 2560 nM
same,IC50,MOLT-16,> 2560 nM
same,IC50,MOLT-4,> 2560 nM
same,IC50,ACN,> 2560 nM
same,IC50,MFH-ino,> 2560 nM
same,IC50,697,> 2560 nM
same,IC50,MZ7-mel,> 2560 nM
same,IC50,RPMI-8226,> 2560 nM
same,IC50,SW 954,> 2560 nM
same,IC50,NCI-H1581,> 2560 nM
same,IC50,KG-1,> 2560 nM
same,IC50,EW-16,> 2560 nM
same,IC50,A4-Fuk,1860 nM
same,IC50,LB831-BLC,> 2560 nM
same,IC50,TE-6,> 2560 nM
same,IC50,CTB-1,> 2560 nM
same,IC50,COR-L88,> 2560 nM
same,IC50,NCI-H1355,> 2560 nM
same,IC50,TE-11,> 2560 nM
same,IC50,LB771-HNC,> 2560 nM
same,IC50,MV4-11,> 2560 nM
same,IC50,COLO-684,> 2560 nM
same,IC50,GR-ST,> 2560 nM
same,IC50,C2BBe1,> 2560 nM
same,IC50,KM12,> 2560 nM
same,IC50,TE-1,> 2560 nM
same,IC50,ES8,> 2560 nM
same,IC50,GI-1,> 2560 nM
same,IC50,SBC-1,> 2560 nM
same,IC50,K5,> 2560 nM
same,IC50,GB-1,> 2560 nM
same,IC50,J-RT3-T3-5,> 2560 nM
same,IC50,NMC-G1,> 2560 nM
same,IC50,LS-411N,1250 nM
same,IC50,CGTH-W-1,> 2560 nM
same,IC50,NCI-H209,> 2560 nM
same,IC50,NCI-H526,> 2560 nM
